≈ marks a conversion by molar mass, not a printed value.
Experiments:
[1] = tested on: Aspergillus flavus ATCC MYA-1004; experiment: In vitro assay for antifungal activity (MIC90); assay type: cell-based; settings: RPMI 1640, growth read after 48 hours, duplicate; for MIC90: read-out: MIC90 (concentration at which 90% of the fungi were inhibited compared to the negative control)
Procedure: (§1) Fungal strains to be tested were inoculated onto Sabouraud dextrose agar, YM agar, and potato dextrose agar and cultured at 35° C. for two to three days. Individual single colonies of the yeast fungi selected out of the cultured strains were suspended in 5 ml of 0.85% sterile saline, followed by correction to adjust the absorbance thereof at 530 nm to 0.108. The suspensions were diluted serially by 1:50 and then 1:20 in RPMI 1640 media to prepare liquid inocula ranging in cell count from 1.0×10^3 to 5.0×10^3 CFU/ml. As for filamentous fungi, their spores were suspended in 0.85% sterile saline and the suspensions were corrected with sterile saline to show optical transmittance at 530 nm of 80 to 82%. A dilution of 1:50 was made with RPMI 1640 media to prepare liquid inocula having cell counts from […] to 5×10^4 CFU/ml.
(§2) Antifungal samples were prepared by diluting the compounds of the present inventions in RPMI 1640 media to serial concentrations from 0.0625 to 32 μg/ml. As a vehicle, DMSO was contained in a final concentration of 1% (V/V) in the antifungal samples. 0.1 ml of each of the dilutions in series was added to equal volume of each of the fungal inocula.

[2] = tested on: Cryptococcus neoformans ATCC 4065; experiment: In vitro assay for antifungal activity (MIC90); assay type: cell-based; settings: for MIC90 (concentration at which 90% of the fungi were inhibited compared to the negative control): RPMI 1640, duplicate; for MIC90: ATCC4065, RPMI 1640, duplicate, read-out: MIC90 (concentration at which 90% of the fungi were inhibited compared to the negative control)
Procedure: as §1, §2

[3] = tested on: Aspergillus fumigatus ATCC MYA-1163; experiment: In vitro assay for antifungal activity (MIC90); assay type: cell-based; settings: RPMI 1640, growth read after 48 hours, duplicate; for MIC90: read-out: MIC90 (concentration at which 90% of the fungi were inhibited compared to the negative control)
Procedure: as §1, §2

[4] = tested on: Aspergillus terreus ATCC 28301; experiment: In vitro assay for antifungal activity (MIC90); assay type: cell-based; settings: duplicate; for MIC90 (concentration at which 90% of the fungi were inhibited compared to the negative control): RPMI 1640, growth read after 48 hours; for MIC90: ATCC28301, RPMI 1640, growth read after 48 hours, read-out: MIC90 (concentration at which 90% of the fungi were inhibited compared to the negative control)
Procedure: as §1, §2

[5] = tested on: Candida glabrata ATCC 34138; experiment: In vitro assay for antifungal activity (MIC90); assay type: cell-based; settings: duplicate; for MIC90 (concentration at which 90% of the fungi were inhibited compared to the negative control): RPMI 1640, growth read after 24 hours; for MIC90: Nakaseomyces glabratus, ATCC34138, RPMI 1640, growth read after 24 hours, read-out: MIC90 (concentration at which 90% of the fungi were inhibited compared to the negative control)
Procedure: as §1, §2

[6] = tested on: Candida albicans ATCC 32033; experiment: In vitro assay for antifungal activity (MIC90); assay type: cell-based; settings: duplicate; for MIC90 (concentration at which 90% of the fungi were inhibited compared to the negative control): RPMI 1640, growth read after 24 hours; for MIC90: ATCC32033, RPMI 1640, growth read after 24 hours, read-out: MIC90 (concentration at which 90% of the fungi were inhibited compared to the negative control)
Procedure: as §1, §2

[7] = tested on: Candida krusei ATCC 6258; experiment: In vitro assay for antifungal activity (MIC90); assay type: cell-based; settings: duplicate; for MIC90 (concentration at which 90% of the fungi were inhibited compared to the negative control): RPMI 1640, growth read after 24 hours; for MIC90: Pichia kudriavzevii, ATCC6258, RPMI 1640, growth read after 24 hours, read-out: MIC90 (concentration at which 90% of the fungi were inhibited compared to the negative control)
Procedure: as §1, §2

[8] = tested on: Aspergillus niger ATCC 9142; experiment: In vitro assay for antifungal activity (MIC90); assay type: cell-based; settings: duplicate; for MIC90 (concentration at which 90% of the fungi were inhibited compared to the negative control): RPMI 1640, growth read after 48 hours; for MIC90: ATCC9142, RPMI 1640, growth read after 48 hours, read-out: MIC90 (concentration at which 90% of the fungi were inhibited compared to the negative control)
Procedure: as §1, §2

[9] = Assay for acute toxicity; assay type: in vivo; settings: mice; oral administration, to a dose of 1000 mg/kg; observed for two weeks; suspension in 25% beta-hydroxypropyl methylcellulose base or polyethylene glycol 400
[10] = tested on: Candida albicans (ATCC 36082); experiment: In vivo assay for antifungal activity (survival of infected mice); settings: ICR mice infected i.v. with Candida albicans ATCC 36082; 20 mg/kg orally once a day for seven days (day 0 to day 6); groups of 10
Procedure: Candida albicans (ATCC 36082) was grown in YM broth on a rotary shaker (200 rpm, 26° C.) for about 12 hours to a concentration of 2.5×10^7 CFU/ml and used to infect ICR mice at a dose of 0.2 ml/head via caudal veins. Suspensions or solutions of the azole compounds in a 25% beta-hydroxypropyl methylcellulose base were orally administered at a dose of 20 mg/kg to respective infected ICR mice in groups of 10, the condition and body weights of the mice were monitored, and autopsies were finally conducted. For a negative control, the vehicle alone was used while fluconazole was administered to a positive control. The mice were inoculated once with the fungal preparation on the day of commencement of the administration. The test materials of interest and the positive control material were orally administered to the inoculated mice once a day for seven days from day 0 to day 6, with the first oral administration made five hours after the fungal inoculation (day 0). The periods of time for which the infected mice lived were counted.
The number of mice which survived the fungal infection for 21 days following the inoculation was represented as % survival for each test group, and the results are given in Table 11, below. All members of the negative control were dead 8 days after the fungal infection, while all of the groups administered with Compound 50 were dead 18 days after the fungal infection.

SMILES	MIC90 (concentration at which 90% of the fungi were inhibited compared to the negative control) [1] [µg/mL]	MIC90 (concentration at which 90% of the fungi were inhibited compared to the negative control) [2] [µg/mL]	MIC90 (concentration at which 90% of the fungi were inhibited compared to the negative control) [3] [µg/mL]	MIC90 (concentration at which 90% of the fungi were inhibited compared to the negative control) [4] [µg/mL]	MIC90 (concentration at which 90% of the fungi were inhibited compared to the negative control) [5] [µg/mL]	MIC90 (concentration at which 90% of the fungi were inhibited compared to the negative control) [6]	MIC90 (concentration at which 90% of the fungi were inhibited compared to the negative control) [7] [µg/mL]	MIC90 (concentration at which 90% of the fungi were inhibited compared to the negative control) [8] [µg/mL]	acute toxicity: toxic syndromes observed [9]	% Survival on Day 21 [10] [%]	MIC90 [1] [µg/mL]	MIC90 [2] [µg/mL]	MIC90 [3] [µg/mL]	MIC90 [4] [µg/mL]	MIC90 [5] [µg/mL]	MIC90 [6] [µg/mL]	MIC90 [7] [µg/mL]	MIC90 [8] [µg/mL]
C[C@@H](n1cc2cc(F)ccc2n1)[C@](O)(Cn1cncn1)c1ccc(F)cc1F [Example 56]	2	0.125	0.5	2	2	≦0.015 μg/ml	1	2										
C[C@@H](n1cc2cc(Br)ccc2n1)[C@](O)(Cn1cncn1)c1ccc(F)cc1F [Example 60]	1	1	0.5	1	2	≦0.015 μg/ml	1	1	no toxic syndromes	10								
Cc1c2cc(F)ccc2nn1[C@H](C)[C@](O)(Cn1cncn1)c1ccc(F)cc1F [Example 72]	8	1	4	4	8	0.031 µg/mL	8	8										
CCc1c2cc(F)ccc2nn1[C@H](C)[C@](O)(Cn1cncn1)c1ccc(F)cc1F [Example 100]	16	0.25	16	16	8	≦0.015 μg/ml	4	>16										
Cc1nn([C@H](C)[C@](O)(Cn2cncn2)c2ccc(F)cc2F)c2ccc([N+](=O)[O-])cc12 [Example 106, (2R,3R)-2-(2,4-Difluorophenyl)-3-(3-methyl-5-nitro-1H-indazol-1-yl)-1-(1H-1,2,4-triazol-1-yl)butan-2-ol]											8 (≈ 18.7 µM)	0.5 (≈ 1.17 µM)	8 (≈ 18.7 µM)	4 (≈ 9.34 µM)	8 (≈ 18.7 µM)	0.031 (≈ 0.0724 µM)	4 (≈ 9.34 µM)	16 (≈ 37.3 µM)
C[C@@H](n1ncc2cc([N+](=O)[O-])ccc21)[C@](O)(Cn1cncn1)c1ccc(F)cc1F [Example 234, (2R,3R)-2-(2,4-difluorophenyl)-3-(5-nitro-1H-indazol-1-yl)-1-(1H-1,2,4-triazol-1-yl)butan-2-ol]									no toxic syndromes	40	1 (≈ 2.41 µM)	0.125 (≈ 0.302 µM)	2 (≈ 4.83 µM)	2 (≈ 4.83 µM)	4 (≈ 9.65 µM)	≤ 0.015	0.5 (≈ 1.21 µM)	2 (≈ 4.83 µM)
C[C@@H](n1ncc2cc(NCC3CCCCC3)ccc21)[C@](O)(Cn1cncn1)c1ccc(F)cc1F [Example 309]	2	0.5	8	4	8	≦0.015 μg/ml	1	16										
OC(Cn1cncn1)(Cn1cncn1)c1ccc(F)cc1F [Fluconazole, fluconazole, reference compound]										20	> 128	8 (≈ 26.1 µM)	> 128	> 128	> 32	1 (≈ 3.27 µM)	> 8	> 128

More lines, main results first:

MIC90 (concentration at which 90% of the fungi were inhibited compared to the negative control) [1] [µg/mL]	MIC90 (concentration at which 90% of the fungi were inhibited compared to the negative control) [2] [µg/mL]	MIC90 (concentration at which 90% of the fungi were inhibited compared to the negative control) [3] [µg/mL]	MIC90 (concentration at which 90% of the fungi were inhibited compared to the negative control) [4] [µg/mL]	MIC90 (concentration at which 90% of the fungi were inhibited compared to the negative control) [5] [µg/mL]	MIC90 (concentration at which 90% of the fungi were inhibited compared to the negative control) [6]	MIC90 (concentration at which 90% of the fungi were inhibited compared to the negative control) [7] [µg/mL]	MIC90 (concentration at which 90% of the fungi were inhibited compared to the negative control) [8] [µg/mL]	SMILES	acute toxicity: toxic syndromes observed [9]	% Survival on Day 21 [10] [%]	MIC90 [1] [µg/mL]	MIC90 [2] [µg/mL]	MIC90 [3] [µg/mL]	MIC90 [4] [µg/mL]	MIC90 [5] [µg/mL]	MIC90 [6] [µg/mL]	MIC90 [7] [µg/mL]	MIC90 [8] [µg/mL]
0.5	0.25	0.5	1	8	≦0.015 μg/ml	0.5	2	C[C@@H](n1ncc2cc(NCc3ccc(F)cc3)ccc21)[C@](O)(Cn1cncn1)c1ccc(F)cc1F [Example 244]										
1	0.25	1	2	8	≦0.015 μg/ml	0.5	4	C[C@@H](n1ncc2cc(NCc3ccc(OC(F)(F)F)cc3)ccc21)[C@](O)(Cn1cncn1)c1ccc(F)cc1F [Example 247]										
0.5	0.25	1	2	8	≦0.015 μg/ml	0.5	4	C[C@@H](n1ncc2cc(NCc3ccc(F)cc3F)ccc21)[C@](O)(Cn1cncn1)c1ccc(F)cc1F [Example 250]										

Reference: patent publication US7812045B2, “Antifungal triazole derivatives” (Daewoong Pharmaceutical Co., Ltd., priority 2005, dated 2010)
